Key:
Test in all cases: Caliper, Mobility shift assay off-chip
[1] = molecular target: ABL1 (human) (UniProt P00519)
[2] = molecular target: BMX (human) (UniProt P51813)
[3] = molecular target: CHEK1 (human) (UniProt O14757)
[4] = molecular target: CSNK1A1 (human) (UniProt P48729)
[5] = molecular target: CSNK1G2 (human) (UniProt P78368)
[6] = molecular target: DCLK1 (human) (UniProt O15075)
[7] = molecular target: DYRK1A (human) (UniProt Q13627)
[8] = molecular target: EGFR (human) (UniProt P00533)
[9] = molecular target: FGFR1 (human) (UniProt P11362)
[10] = tested on: FGFR2 (human), P21802 [N549H]
[11] = molecular target: GSK3B (human) (UniProt P49841)
[12] = molecular target: IGF1R (human) (UniProt P08069)
[13] = molecular target: IKBKB (human) (UniProt O14920)
[14] = molecular target: INSR (human) (UniProt P06213)
[15] = molecular target: MAP4K4 (human) (UniProt O95819)
[16] = molecular target: MAPK12 (human) (UniProt P53778)
Sequence of MAPK12 (human) (P53778 whole entry, looked up): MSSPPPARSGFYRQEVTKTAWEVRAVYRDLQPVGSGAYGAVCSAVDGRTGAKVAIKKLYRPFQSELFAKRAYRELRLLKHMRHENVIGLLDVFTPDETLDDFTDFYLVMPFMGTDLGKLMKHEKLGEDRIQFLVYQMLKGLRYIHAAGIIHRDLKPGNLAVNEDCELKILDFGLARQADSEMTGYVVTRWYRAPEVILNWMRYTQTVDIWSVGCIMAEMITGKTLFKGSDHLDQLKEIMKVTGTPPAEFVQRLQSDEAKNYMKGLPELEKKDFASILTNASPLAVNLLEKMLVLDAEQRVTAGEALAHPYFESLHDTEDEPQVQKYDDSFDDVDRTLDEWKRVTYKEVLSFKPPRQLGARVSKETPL

[17] = molecular target: MAPKAPK5 (human) (UniProt Q8IW41)
[18] = molecular target: MELK (human) (UniProt Q14680)
Sequence of MELK (human) (Q14680 whole entry, looked up): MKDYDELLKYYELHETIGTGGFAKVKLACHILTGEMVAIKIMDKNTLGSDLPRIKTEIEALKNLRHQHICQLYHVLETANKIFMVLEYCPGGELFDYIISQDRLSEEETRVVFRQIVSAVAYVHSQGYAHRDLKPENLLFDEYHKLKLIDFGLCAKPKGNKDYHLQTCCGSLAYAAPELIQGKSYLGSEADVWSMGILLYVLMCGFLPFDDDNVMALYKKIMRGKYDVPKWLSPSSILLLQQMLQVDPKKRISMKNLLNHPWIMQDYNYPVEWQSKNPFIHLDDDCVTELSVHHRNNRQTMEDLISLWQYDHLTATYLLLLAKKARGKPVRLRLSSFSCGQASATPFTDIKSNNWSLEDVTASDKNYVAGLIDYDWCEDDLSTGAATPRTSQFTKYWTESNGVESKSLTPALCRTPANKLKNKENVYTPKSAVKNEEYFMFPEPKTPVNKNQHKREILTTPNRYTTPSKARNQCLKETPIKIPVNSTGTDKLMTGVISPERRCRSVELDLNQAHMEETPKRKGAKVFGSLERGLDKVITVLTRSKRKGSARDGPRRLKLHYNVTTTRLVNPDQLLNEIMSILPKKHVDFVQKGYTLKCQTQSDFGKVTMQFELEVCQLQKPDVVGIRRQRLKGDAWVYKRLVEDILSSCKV

[19] = molecular target: PDGFRA (human) (UniProt P16234)
Sequence of PDGFRA (human) (P16234 whole entry, looked up): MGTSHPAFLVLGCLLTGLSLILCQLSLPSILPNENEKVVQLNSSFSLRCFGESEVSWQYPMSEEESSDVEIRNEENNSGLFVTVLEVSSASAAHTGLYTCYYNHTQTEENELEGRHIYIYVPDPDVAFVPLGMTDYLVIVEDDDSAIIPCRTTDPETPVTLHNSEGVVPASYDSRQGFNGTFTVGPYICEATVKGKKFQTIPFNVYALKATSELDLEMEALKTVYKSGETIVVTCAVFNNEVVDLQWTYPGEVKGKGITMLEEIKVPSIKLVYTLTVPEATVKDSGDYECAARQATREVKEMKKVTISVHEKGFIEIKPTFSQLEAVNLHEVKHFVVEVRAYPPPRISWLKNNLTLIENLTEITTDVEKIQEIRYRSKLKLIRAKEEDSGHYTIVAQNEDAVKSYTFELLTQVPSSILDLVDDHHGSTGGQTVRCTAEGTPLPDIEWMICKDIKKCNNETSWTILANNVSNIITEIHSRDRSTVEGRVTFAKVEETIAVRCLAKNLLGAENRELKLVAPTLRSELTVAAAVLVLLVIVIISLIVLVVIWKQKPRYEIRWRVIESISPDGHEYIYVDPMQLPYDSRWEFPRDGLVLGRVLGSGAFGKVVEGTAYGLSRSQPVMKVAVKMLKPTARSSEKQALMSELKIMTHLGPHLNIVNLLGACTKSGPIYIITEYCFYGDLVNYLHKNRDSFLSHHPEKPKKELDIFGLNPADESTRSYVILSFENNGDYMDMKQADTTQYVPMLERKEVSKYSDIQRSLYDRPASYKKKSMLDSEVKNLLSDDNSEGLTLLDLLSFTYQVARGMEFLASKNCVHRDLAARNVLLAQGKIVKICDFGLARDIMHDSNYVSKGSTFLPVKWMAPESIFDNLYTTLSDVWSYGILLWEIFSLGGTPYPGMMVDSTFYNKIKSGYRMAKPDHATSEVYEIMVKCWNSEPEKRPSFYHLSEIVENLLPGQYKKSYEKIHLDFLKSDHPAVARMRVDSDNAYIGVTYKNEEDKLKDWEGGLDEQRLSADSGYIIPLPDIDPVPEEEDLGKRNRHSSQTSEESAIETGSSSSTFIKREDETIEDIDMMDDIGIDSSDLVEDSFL

[20] = molecular target: PHKG2 (human) (UniProt P15735)
Sequence of PHKG2 (human) (P15735 whole entry, looked up): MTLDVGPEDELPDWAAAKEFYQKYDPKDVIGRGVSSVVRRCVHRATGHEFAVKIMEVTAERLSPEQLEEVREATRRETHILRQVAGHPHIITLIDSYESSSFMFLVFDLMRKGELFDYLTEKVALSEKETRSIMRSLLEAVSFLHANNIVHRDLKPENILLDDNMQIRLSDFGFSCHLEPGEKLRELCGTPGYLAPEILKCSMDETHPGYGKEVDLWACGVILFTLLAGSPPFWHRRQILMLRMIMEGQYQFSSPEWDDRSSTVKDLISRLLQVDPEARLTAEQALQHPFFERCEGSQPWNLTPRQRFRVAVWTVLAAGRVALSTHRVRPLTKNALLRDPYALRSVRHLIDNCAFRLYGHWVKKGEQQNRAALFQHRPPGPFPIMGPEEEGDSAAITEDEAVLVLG

[21] = molecular target: PRKACA (human) (UniProt P17612)
[22] = molecular target: PRKCD (human) (UniProt Q05655)
[23] = molecular target: PRKCG (human) (UniProt P05129)
[24] = molecular target: PRKCH (human) (UniProt P24723)
Sequence of PRKCH (human) (P24723 whole entry, looked up): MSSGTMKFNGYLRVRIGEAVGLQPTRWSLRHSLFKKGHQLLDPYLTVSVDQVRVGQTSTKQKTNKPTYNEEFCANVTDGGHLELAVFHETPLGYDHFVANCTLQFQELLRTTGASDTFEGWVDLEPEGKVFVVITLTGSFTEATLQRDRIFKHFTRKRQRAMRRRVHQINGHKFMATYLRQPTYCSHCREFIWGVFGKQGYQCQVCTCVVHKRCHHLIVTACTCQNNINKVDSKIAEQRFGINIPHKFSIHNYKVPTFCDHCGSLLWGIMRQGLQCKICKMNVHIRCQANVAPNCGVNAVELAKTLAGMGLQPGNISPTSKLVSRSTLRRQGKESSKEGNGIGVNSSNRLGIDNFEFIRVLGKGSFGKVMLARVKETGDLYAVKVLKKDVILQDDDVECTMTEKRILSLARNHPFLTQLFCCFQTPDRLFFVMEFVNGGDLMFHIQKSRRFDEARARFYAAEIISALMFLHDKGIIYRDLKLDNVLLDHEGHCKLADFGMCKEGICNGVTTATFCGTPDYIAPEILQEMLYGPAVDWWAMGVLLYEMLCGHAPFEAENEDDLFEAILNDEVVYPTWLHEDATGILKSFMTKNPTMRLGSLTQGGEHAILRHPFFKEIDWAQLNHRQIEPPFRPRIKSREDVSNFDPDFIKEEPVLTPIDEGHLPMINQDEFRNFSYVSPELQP

[25] = molecular target: PRKCQ (human) (UniProt Q04759)
[26] = molecular target: PTK2B (human) (UniProt Q14289)
[27] = molecular target: RAF1 (human) (UniProt P04049)
[28] = tested on: RET (human), P07949 [Y791F]
[29] = molecular target: ROCK2 (human) (UniProt O75116)
[30] = molecular target: ROS1 (human) (UniProt P08922)
[31] = molecular target: SGK2 (human) (UniProt Q9HBY8)
Sequence of SGK2 (human) (Q9HBY8 whole entry, looked up): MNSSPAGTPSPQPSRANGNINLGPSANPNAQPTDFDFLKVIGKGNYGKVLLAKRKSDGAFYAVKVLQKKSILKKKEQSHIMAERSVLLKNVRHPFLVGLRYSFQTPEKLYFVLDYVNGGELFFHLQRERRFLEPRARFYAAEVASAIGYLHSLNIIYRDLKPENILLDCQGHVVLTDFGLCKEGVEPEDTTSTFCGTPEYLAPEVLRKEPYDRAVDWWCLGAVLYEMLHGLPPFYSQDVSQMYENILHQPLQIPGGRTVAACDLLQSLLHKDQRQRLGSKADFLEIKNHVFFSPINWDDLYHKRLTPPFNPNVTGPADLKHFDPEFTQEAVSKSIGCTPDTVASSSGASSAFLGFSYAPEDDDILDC

[32] = molecular target: SGK3 (human) (UniProt Q96BR1)
[33] = molecular target: SRC (human) (UniProt P12931)

Sequence of CSNK1A1 (human) (P48729 whole entry, looked up): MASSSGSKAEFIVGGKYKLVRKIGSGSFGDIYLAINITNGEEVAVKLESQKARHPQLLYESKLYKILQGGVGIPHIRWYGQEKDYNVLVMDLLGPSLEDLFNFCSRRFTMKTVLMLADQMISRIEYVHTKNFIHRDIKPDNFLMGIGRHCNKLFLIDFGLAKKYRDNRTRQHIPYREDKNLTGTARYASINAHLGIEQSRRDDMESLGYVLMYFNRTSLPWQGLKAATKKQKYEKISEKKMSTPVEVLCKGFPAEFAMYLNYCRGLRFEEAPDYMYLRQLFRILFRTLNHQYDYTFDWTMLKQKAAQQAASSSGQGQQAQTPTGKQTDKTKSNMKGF
Sequence of CSNK1G2 (human) (P78368 whole entry, looked up): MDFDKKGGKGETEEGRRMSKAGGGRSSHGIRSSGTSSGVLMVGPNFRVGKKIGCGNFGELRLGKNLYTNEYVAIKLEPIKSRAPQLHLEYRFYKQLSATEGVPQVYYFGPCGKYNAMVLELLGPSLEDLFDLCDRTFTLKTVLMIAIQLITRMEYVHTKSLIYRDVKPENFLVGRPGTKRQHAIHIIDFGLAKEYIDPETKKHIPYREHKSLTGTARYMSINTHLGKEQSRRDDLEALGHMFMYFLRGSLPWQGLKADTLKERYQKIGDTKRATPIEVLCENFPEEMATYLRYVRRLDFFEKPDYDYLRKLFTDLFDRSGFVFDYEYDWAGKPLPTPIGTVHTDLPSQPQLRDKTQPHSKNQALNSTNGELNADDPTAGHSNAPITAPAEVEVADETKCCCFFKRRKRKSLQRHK
Sequence of BMX (human) (P51813 whole entry, looked up): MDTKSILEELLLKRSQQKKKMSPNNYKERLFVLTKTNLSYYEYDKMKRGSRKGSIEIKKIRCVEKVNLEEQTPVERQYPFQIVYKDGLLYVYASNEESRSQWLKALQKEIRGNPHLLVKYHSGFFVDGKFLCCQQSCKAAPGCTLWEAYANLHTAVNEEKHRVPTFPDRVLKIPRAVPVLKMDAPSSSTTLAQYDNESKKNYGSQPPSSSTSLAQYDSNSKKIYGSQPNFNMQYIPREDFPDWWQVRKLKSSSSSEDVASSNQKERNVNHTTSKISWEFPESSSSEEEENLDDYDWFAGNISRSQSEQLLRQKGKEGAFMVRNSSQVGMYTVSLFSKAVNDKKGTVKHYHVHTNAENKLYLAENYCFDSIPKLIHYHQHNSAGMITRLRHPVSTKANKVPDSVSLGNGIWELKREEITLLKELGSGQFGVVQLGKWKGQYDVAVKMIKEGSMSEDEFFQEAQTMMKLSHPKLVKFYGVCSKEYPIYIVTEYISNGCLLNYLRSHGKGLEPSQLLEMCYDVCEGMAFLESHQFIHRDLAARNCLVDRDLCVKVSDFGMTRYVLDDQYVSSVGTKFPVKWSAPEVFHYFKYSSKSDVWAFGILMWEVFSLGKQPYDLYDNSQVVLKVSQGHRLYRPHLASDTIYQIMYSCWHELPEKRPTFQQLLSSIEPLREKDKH

inhibition ([1]; compound 0.1 µM): -1%
inhibition ([1]; compound 1.0 µM): 1.6%
inhibition ([2]; compound 0.1 µM): -10.4%
inhibition ([2]; compound 1.0 µM): 3.2%
inhibition ([3]; compound 0.1 µM): -0.6%
inhibition ([3]; compound 1.0 µM): 2.9%
inhibition ([4]; compound 0.1 µM): 5%
inhibition ([4]; compound 1.0 µM): -0.6%
inhibition ([5]; compound 0.1 µM): 2.7%
inhibition ([5]; compound 1.0 µM): 5.8%
inhibition ([6]; compound 0.1 µM): -26.1%
inhibition ([6]; compound 1.0 µM): -5.4%
inhibition ([7]; compound 0.1 µM): 5.6%
inhibition ([7]; compound 1.0 µM): -6.7%
inhibition ([8]; compound 0.1 µM): -5.8%
inhibition ([8]; compound 1.0 µM): 9.3%
inhibition ([9]; compound 0.1 µM): 1.5%
inhibition ([9]; compound 1.0 µM): -7.9%
inhibition ([10]; compound 0.1 µM): -8.4%
inhibition ([10]; compound 1.0 µM): 0.9%
inhibition ([11]; compound 0.1 µM): -0.6%
inhibition ([11]; compound 1.0 µM): -3.3%
inhibition ([12]; compound 0.1 µM): -3%
inhibition ([12]; compound 1.0 µM): 1.3%
inhibition ([13]; compound 0.1 µM): 1.2%
inhibition ([13]; compound 1.0 µM): -3.1%
inhibition ([14]; compound 0.1 µM): 5.1%
inhibition ([14]; compound 1.0 µM): 3.5%
inhibition ([15]; compound 0.1 µM): 5%
inhibition ([15]; compound 1.0 µM): -0.2%
inhibition ([16]; compound 0.1 µM): 6.1%
inhibition ([16]; compound 1.0 µM): 8.3%
inhibition ([17]; compound 0.1 µM): -4.3%
inhibition ([17]; compound 1.0 µM): 2.9%
inhibition ([18]; compound 0.1 µM): 2.7%
inhibition ([18]; compound 1.0 µM): 5.7%
inhibition ([19]; compound 0.1 µM): 1.5%
inhibition ([19]; compound 1.0 µM): 3.9%
inhibition ([20]; compound 0.1 µM): 1%
inhibition ([20]; compound 1.0 µM): -4.4%
inhibition ([21]; compound 0.1 µM): 2.5%
inhibition ([21]; compound 1.0 µM): 4.8%
inhibition ([22]; compound 0.1 µM): 0.7%
inhibition ([22]; compound 1.0 µM): -5.4%
inhibition ([23]; compound 0.1 µM): 10.9%
inhibition ([23]; compound 1.0 µM): -15%
inhibition ([24]; compound 0.1 µM): 7.2%
inhibition ([24]; compound 1.0 µM): -8.7%
inhibition ([25]; compound 0.1 µM): 3.3%
inhibition ([25]; compound 1.0 µM): 0.5%
inhibition ([26]; compound 0.1 µM): 10%
inhibition ([26]; compound 1.0 µM): 2.5%
inhibition ([27]; compound 0.1 µM): 3.2%
inhibition ([27]; compound 1.0 µM): -9.1%
inhibition ([28]; compound 0.1 µM): 1.1%
inhibition ([28]; compound 1.0 µM): 2.7%
inhibition ([29]; compound 0.1 µM): -2.6%
inhibition ([29]; compound 1.0 µM): 4.2%
inhibition ([30]; compound 0.1 µM): 5.1%
inhibition ([30]; compound 1.0 µM): -12.4%
inhibition ([31]; compound 0.1 µM): -1.4%
inhibition ([31]; compound 1.0 µM): -7.4%
inhibition ([32]; compound 0.1 µM): 9%
inhibition ([32]; compound 1.0 µM): 1%
inhibition ([33]; compound 0.1 µM): 1.1%
inhibition ([33]; compound 1.0 µM): 6.6%
SMILES: O=C(CCc1ccc2ccc3ncc(C4CCNCC4)cc3c(=O)c2c1)NCc1ccccn1
